Data on 72 molecules can be found in patent US20260373266A1, “PROTEIN DEGRADERS AND USES THEREOF” (KYMERA THERAPEUTICS, INC., priority 2022, published 2026).

A word on the Kd: it is the equilibrium constant for the complex coming apart.

The structures appear in SMILES notation. Bounds are passed on as bounds.

For the assay, the target named is T1, DCAF1 WD40 domain (residues 1077-1390) (Homo sapiens, UniProt Q9Y4B6).
T1 construct: DCAF1 WD40 domain (residues 1077-1390)
Nature of the assay: DCAF1 binding assay by SPR (Biacore 8K+), DCAF1-3 KD. The settings on record: 25 °C, read-out: DCAF1-3 SPR (KD).

T1 sequence (Q9Y4B6 1077-1390): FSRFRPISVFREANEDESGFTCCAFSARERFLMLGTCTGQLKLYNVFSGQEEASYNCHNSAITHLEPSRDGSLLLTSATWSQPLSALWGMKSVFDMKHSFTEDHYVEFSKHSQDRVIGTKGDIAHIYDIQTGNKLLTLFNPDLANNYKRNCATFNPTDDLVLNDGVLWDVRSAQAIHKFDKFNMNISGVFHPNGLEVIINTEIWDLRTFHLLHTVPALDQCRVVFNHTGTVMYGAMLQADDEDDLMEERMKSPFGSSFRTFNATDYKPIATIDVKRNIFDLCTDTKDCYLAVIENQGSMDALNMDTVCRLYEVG

Turning to `Cc1c(F)ccc(F)c1-c1c(C(=O)N[C@@H](CC(N)=O)c2cccc(Cl)c2)cn(C(C)C)c1C#N` [I-976], the Kd was less than 10 µM. Next, `Cc1cc(Cl)cc([C@H](CC(N)=O)NC(=O)c2cn[nH]c2-c2c(C)cccc2F)c1` [I-737]: more than 200 µM; `CS(=O)(=O)Cc1ccc(F)c(-c2[nH]ncc2C(=O)N[C@@H](CC(N)=O)c2cccc(Cl)c2)c1` [I-246]: more than 200 µM. Turning to `Fc1cccc([C@H]2CCC[C@@H](Nc3cc(N4CCOCC4)ncn3)C2)c1` [I-182], the Kd is more than 200 µM.

`c1cc(N2CCOCC2)cc(N[C@@H]2CCCN(c3ccc4c(c3)CCC4)C2)n1` [I-508]: the Kd is 100 to 200 µM. In the case of `CCC(=O)NC1CCC2(CC1)CCN(c1cccc(N[C@@H]3CCCN(c4cccc(F)c4)C3)c1)CC2` [I-853] it was less than 10 µM. With `Nc1ccc(F)cc1N1CCC[C@@H](Nc2cc(N3CCOCC3)ccn2)C1` [I-682], the Kd is less than 10 µM. Next, `C=CC(=O)N1CCc2[nH]nc(C(=O)N[C@@H](CC(N)=O)c3cccc(Cl)c3)c2C1` [I-300]: more than 200 µM; `Cc1c(F)ccc(F)c1-c1c(C(=O)N[C@@H](CC(=O)N2CC[C@H](O)C2)c2cccc(Cl)c2)cn(C)c1C#N` [I-1004]: less than 10 µM; `Cn1nccc1-c1[nH]ncc1C(=O)N[C@@H](CC(N)=O)c1cccc(Cl)c1` [I-157]: 10 to 100 µM. Next, `Cc1c(F)ccc(F)c1-c1[nH]ncc1C(=O)N[C@@H](c1cccc(Cl)c1)[C@@H]1CCCS1(=O)=O` [I-1002]: less than 10 µM. In the case of `c1ccc2c(N3CCC[C@@H](Nc4nccc(N5CCOCC5)n4)C3)cncc2c1` [I-54] it was 10 to 100 µM; in that of `Fc1cccc(N2CCC[C@@H](Nc3nccc(N4CCOCC4)n3)C2)c1` [I-370], more than 200 µM; in that of `NC(=O)CCc1cccc(N2CCC[C@@H]3[C@H]2CCN3c2cc(N3CCCCC3)ccn2)c1` [I-879], 10 to 100 µM.

For `NCCOCCOCCOCCC1CCN(c2ccnc(N3CC[C@@H]4[C@H]3CCCN4c3cccc(F)c3)c2)CC1` [I-649], the equilibrium dissociation constant (Kd) is less than 10 µM.

On to `NC(=O)CCc1cccc(N2CCC[C@@H](Nc3cc(N4CCOCC4)ccn3)C2)c1` [I-777], for which the dissociation constant Kd fell in the range of 10 to 100 µM.

In the case of `NC(=O)Cc1cccc(N2CCC[C@H]3[C@@H]2CCN3c2cc(N3CCCCC3)ccn2)c1` [I-942], the Kd is less than 10 µM.

As for `Oc1cc(N[C@@H]2CCCN(c3cccc(F)c3)C2)cc(N2CCOCC2)c1` [I-564], the Kd lay in the range of 10 to 100 µM. As for `NC(=O)CC1(NC(=O)c2cn[nH]c2-c2ccccc2F)CCc2ccc(Cl)cc21` (stereo not drawn) [I-607], the Kd lay within 10 to 100 µM. As to `NC(=O)C[C@H](NC(=O)c1cn[nH]c1[C@H]1CCCCO1)c1cccc(Cl)c1` [I-348], the Kd is more than 200 µM. For the molecule `Cc1cccc(F)c1-c1c(C(=O)N[C@@H](CC(N)=O)c2cccc(Cl)c2)c[nH]c1-c1ccccn1` [I-656], the Kd is less than 10 µM. `Fc1cccc(N2CCC[C@@H](Cc3cc(N4CCOCC4)ccn3)C2)c1` [I-87]: the Kd was more than 200 µM.

For `C=CC(=O)NCC1CCCN(c2ccnc(N[C@@H]3CCCN(c4cccc(F)c4)C3)c2)C1` (stereo partly drawn) [I-634], the Kd lay within 10 to 100 µM. In the case of `C=CC(=O)NC1CCN(c2ccnc(N[C@@H]3CCCN(c4cccc(F)c4)C3)c2)CC1` [I-519] it was 10 to 100 µM; in that of `CC1CC=C(c2[nH]ncc2C(=O)N[C@@H](CC(N)=O)c2cccc(Cl)c2)CC1` (stereo partly drawn) [I-611], less than 10 µM. As to `Cc1c(F)ccc(F)c1-c1c(C(=O)N[C@@H](CC(N)=O)c2cccc(Cl)c2)csc1C(=O)c1ccccc1` [I-944], the Kd is less than 10 µM. In the case of `O=C(O)CN(c1cc(N2CCOCC2)ccn1)[C@@H]1CCCN(c2cccc(F)c2)C1` [I-286] it was more than 200 µM; in that of `Fc1cccc(N2CCC[C@H]3[C@@H]2CCN3c2cc(N3CCCCC3)ccn2)c1` [I-580], 100 to 200 µM. In the case of `c1cc(N2CCCCC2)cc(N[C@H]2CCC[C@H](C3CCCCC3)C2)n1` [I-750] it was more than 200 µM; in that of `Fc1cccc(N2CCC[C@H](Cc3cc(N4CCOCC4)[nH]n3)C2)c1` [I-632], more than 200 µM; in that of `Cc1sc2c(c1C)C(c1ccc(Cl)cc1)=N[C@@H](CC(=O)NCCOCCOCCOCCCc1ccc(C(=O)c3[nH]cc(C(=O)N[C@@H](CC(N)=O)c4cccc(Cl)c4)c3-c3c(F)ccc(F)c3C)cc1)c1nnc(C)n1-2` [I-908], less than 10 µM. In the case of `O=c1[nH]cc(C2=CCOCC2)cc1N[C@@H]1CCCN(c2cccc(F)c2)C1` [I-647] it was 10 to 100 µM. Take `Fc1cccc(N2CCC3CCCc4ncc(N5CCOCC5)cc4N[C@H]3C2)c1` (stereo partly drawn) [I-227]: the Kd was more than 200 µM.

As to `Clc1cccc(N2CCC[C@H]3[C@@H]2CCN3c2cc(N3CC4CC(C4)C3)ccn2)c1` [I-717], the dissociation constant Kd was less than 10 µM. Take `NC(=O)C[C@H](NC(=O)c1c[nH]nc1-c1cccc2cc[nH]c12)c1cccc(Cl)c1` [I-235]: the Kd was more than 200 µM. Next, `Cc1ccccc1-c1[nH]ncc1C(=O)N[C@@H](CC(N)=O)c1cccc(Cl)c1` [I-209]: more than 200 µM; `NC(=O)C[C@H](NC(=O)c1c[nH]nc1-c1cc(C(=O)O)ccc1F)c1cccc(Cl)c1` [I-523]: 10 to 100 µM. Take `Fc1cccc(N2CCC[C@@H](Nc3cc(N4Cc5ccccc5C4)ccn3)C2)c1` [I-554]: the Kd fell in the range of 10 to 100 µM. Next, `Cc1sc2c(c1C)C(c1ccc(Cl)cc1)=N[C@@H](CC(=O)NCCCCCCCCCCCCCCCCCCCCC(=O)c1[nH]cc(C(=O)N[C@@H](CC(N)=O)c3cccc(Cl)c3)c1-c1ccccc1F)c1nnc(C)n1-2` [I-894]: more than 200 µM.

As for `NC(=O)C[C@H](NC(=O)c1cn[nH]c1-c1ccccc1F)c1ccc(Cl)cc1` [I-97], the Kd was less than 10 µM.

In the case of `O=C1CC(C(NC(=O)c2cn[nH]c2-c2ccccc2F)c2cccc(Cl)c2)CN1` (stereo not drawn) [I-561], the Kd is more than 200 µM. In the case of `C=CC(=O)N1CCC(N(C)c2ccnc(N[C@@H]3CCCN(c4cccc(F)c4)C3)c2)CC1` [I-460] it was 10 to 100 µM.

For the molecule `Fc1cccc(N2CCC[C@@H](N3CCCc4c(N5CCOCC5)ccnc43)C2)c1` [I-197], the Kd is more than 200 µM. As to `CS(=O)(=O)CCCC(=O)N1CCC[C@@H](Nc2cc(N3CCOCC3)ccn2)C1` [I-768], the Kd is more than 200 µM. In the case of `Cc1c(F)ccc(F)c1-c1c(C(=O)N[C@@H](CC(N)=O)c2cccc(Cl)c2)c[nH]c1C#N` [I-798] it was less than 10 µM; in that of `Cc1sc2c(c1C)C(c1ccc(Cl)cc1)=N[C@@H](CC(=O)NCCOCCOCCOCCOCCOCC(=O)c1[nH]cc(C(=O)N[C@@H](CC(=O)N(C)C)c3cccc(Cl)c3)c1-c1c(F)ccc(F)c1C)c1nnc(C)n1-2` [I-911], less than 10 µM. For `NC(=O)C[C@H](NC(=O)c1c[nH]nc1-c1c(F)cccc1F)c1cccc(Cl)c1` [I-150], the Kd was less than 10 µM. In the case of `C=CC(=O)N(CCCCN1CCN(c2ccnc(N[C@@H]3CCCN(c4cccc(F)c4)C3)c2)CC1)CCOCCOCCNC(=O)C[C@@H]1N=C(c2ccc(Cl)cc2)c2c(sc(C)c2C)-n2c(C)nnc21` [I-904] it was 10 to 100 µM.

For the molecule `COc1ccc(F)c(-c2[nH]ncc2C(=O)N[C@@H](CC(N)=O)c2cccc(Cl)c2)c1` [I-249], the Kd was more than 200 µM. In the case of `Fc1cccc(N2CC[C@@]3(CCN(c4cc(N5CCCCC5)ccn4)C3)C2)c1` [I-659] it was 10 to 100 µM; in that of `Fc1cccc(N2CCNC(Cc3cc(N4CCOCC4)ncn3)C2)c1` (stereo not drawn) [I-225], more than 200 µM.

In the case of `CN(c1ccnc(N[C@@H]2CCCN(c3cccc(F)c3)C2)c1)C1CCCCC1` [I-578], the Kd lay in the range of 10 to 100 µM. With `O[C@@H]1CCCN(c2ccnc(N3CC[C@H]4[C@@H]3CCCN4c3cccc(F)c3)c2)C1` [I-799], the Kd is more than 200 µM.

As to `O=C(CC1CN(C(=O)N2CCC=C(F)C2)CCO1)Nc1ccccn1` (stereo not drawn) [I-86], the Kd is more than 200 µM. Next, `C=CC(=O)N1CCC(c2[nH]ncc2C(=O)N[C@H](CC(N)=O)c2cccc(Cl)c2)CC1` [I-535]: 100 to 200 µM; `Nc1ccc(N2CCC[C@@H]3[C@H]2CCN3c2cc(N3CC4CC(C4)C3)ccn2)cc1F` [I-733]: less than 10 µM.

`NC(=O)C[C@H](NC(=O)c1cn[nH]c1-c1ccccc1F)c1ccccc1Br` [I-581]: the Kd is 10 to 100 µM. Next, `C=CC(=O)NC1CCC(c2n[nH]cc2C(=O)N[C@@H](CC(N)=O)c2cccc(Cl)c2)CC1` (stereo partly drawn) [I-470]: more than 200 µM; `CC(C)Cn1cc(N2CCC[C@@H](Nc3cc(N4CCOCC4)ccn3)C2)cn1` [I-421]: more than 200 µM; `Fc1cccc(N2CCC[C@@H]3[C@H]2CCN3c2cc(N3CC4CCC(C4)C3)ccn2)c1` [I-604]: less than 10 µM. In the case of `COCCOCC[C@@H]1CCCN(c2ccnc(N3CC[C@@H]4[C@H]3CCCN4c3cccc(F)c3)c2)C1` [I-704], the Kd was more than 200 µM. As to `c1ccc(N2CCC[C@@H](Nc3cc(N4CCOCC4)ncn3)C2)cc1` [I-2], the dissociation constant Kd fell in the range of 100 to 200 µM. Regarding `CC(=O)n1ncc(C(=O)N[C@@H](CC(N)=O)c2cccc(Cl)c2)c1-c1ccccc1F` [I-175], the equilibrium dissociation constant (Kd) was more than 200 µM. Next, `COCCOCC[C@H]1CCCN(c2ccnc(N3CC[C@@H]4[C@H]3CCCN4c3cccc(F)c3)c2)C1` [I-713]: 10 to 100 µM; `CC(C)c1cccc(-c2[nH]ncc2C(=O)N[C@@H](CC(N)=O)c2cccc(Cl)c2)c1` [I-525]: 10 to 100 µM; `NC(=O)CCc1ccc(N2CCC[C@@H](Nc3cc(N4CCOCC4)ccn3)C2)cc1` [I-869]: 10 to 100 µM. In the case of `NC(=O)C[C@H](NC(=O)c1[nH][nH]c(=O)c1-c1ccccc1F)c1cccc(Cl)c1` [I-548] it was more than 200 µM; in that of `Cc1c(F)ccc(F)c1-c1c(C(=O)N[C@@H](CC(N)=O)c2cccc(Cl)c2)c[nH]c1C(=O)c1cccc(C2CCCCC2)c1` [I-732], less than 10 µM. On to `NC(=O)C[C@H](NC(=O)c1cn[nH]c1N1CCCCC1)c1cccc(Cl)c1` [I-159], for which the Kd is more than 200 µM. On to `CC1=C(c2[nH]ncc2C(=O)N[C@@H](CC(N)=O)c2cccc(Cl)c2)CCCC1` [I-610], for which the Kd was less than 10 µM. In the case of `Cc1c(F)ccc(F)c1-c1[nH]ncc1C(=O)N[C@@H](CC(=O)N1CCN(C)CC1)c1cccc(Cl)c1` [I-843] it was less than 10 µM. Next, `Fc1cccc(N2CCC[C@@H](Nc3cc(N4CCCC5(CC5)C4)ccn3)C2)c1` [I-573]: 10 to 100 µM.
